Laboratory results from patent publication US7304064B2, “1-[(indol-3-yl)carbonyl]piperazine derivatives” (N.V. Organon, priority 2002, dated 2007).
Where two headings read alike, the source gives them in different places.

Assays:
human CB1 receptor = target: T1, human CB1 receptor (Homo sapiens, UniProt P21554); experiment: In-vitro determination of efficacy and potency at the human CB1 receptor expressed in CHO cells (luciferase reporter); assay type: cell-based
T1 construct: expressed in transfected cells; host or cells: CHO (Chinese Hamster Ovary) cells

Mice = experiment: Tail flick latency in mice; assay type: in vivo; conditions: Mus musculus, iv, administered intravenously, ED50 calculated at Tmax, read-out: ED50 (increase of tail flick latency)
Experimental: Mice were trained to sit still in a tail flick apparatus (Ugo Basile, Italy) whilst tail flick latency was measured. The tail was exposed to a focused beam of radiant heat at a point approximately 2.5 cm from the tip. Tail flick latency was defined as the interval between the appliance of the thermal stimulus and withdrawal of the tail. A 12 second cut-off was employed to prevent tissue damage. Four groups of eight mice were treated with vehicle or one of three doses of the test compound, administered intravenously (vehicle: saline 9 g/l; injection volume 10 ml/kg). Tail flick latency was measured before administration of the test compound and at regular intervals (typically 20, 40 and 60 minutes) after compound administration. The ED50 was calculated at Tmax.

[1] = CHO cells expressing the human CB1 receptor and a luciferase reporter gene, 5 hours incubation, read-out: pEC50 (converted)

T1 sequence (P21554 whole entry): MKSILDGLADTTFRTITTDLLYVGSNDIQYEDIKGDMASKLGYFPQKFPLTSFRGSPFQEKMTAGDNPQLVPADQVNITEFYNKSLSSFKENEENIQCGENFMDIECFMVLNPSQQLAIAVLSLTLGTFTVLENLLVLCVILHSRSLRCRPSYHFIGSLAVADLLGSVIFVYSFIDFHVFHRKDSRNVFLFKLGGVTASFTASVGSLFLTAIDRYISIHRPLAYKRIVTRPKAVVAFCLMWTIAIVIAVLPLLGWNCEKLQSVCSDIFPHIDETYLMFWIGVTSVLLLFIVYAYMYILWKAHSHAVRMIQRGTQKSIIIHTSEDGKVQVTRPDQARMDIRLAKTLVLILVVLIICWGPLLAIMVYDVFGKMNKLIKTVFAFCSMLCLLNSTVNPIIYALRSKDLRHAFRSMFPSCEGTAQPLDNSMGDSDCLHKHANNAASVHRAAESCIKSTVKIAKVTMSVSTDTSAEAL

**Q.** For `CCN1CCN(C(=O)c2cn(CCN3CCOCC3)c3c(OC)cccc23)CC1` [Ref. 2, 1-Ethyl-4-{[7-methoxy-1-[2-(4-morpholin-yl)ethyl]-1H-indol-3-y]carbonyl}-piperazine, reference compound], which EC50 (human CB1 receptor) is on record?
**A.** Its EC50 is > 10000 nM.

**Q.** Which EC50 (human CB1 receptor) does the source give for `CCN1CCN(C(=O)c2cn(C(C)C3CCCCC3)c3ccccc23)CC1` (single isomer, unassigned; (+)) [(+)-5I, (+)-1-{[1-(1-Cyclohexylethyl)-1H-indol-3-yl]carbonyl)-4-ethylpiperazine] here?
**A.** The EC50 was 79.4 nM.

**Q.** Which EC50 (human CB1 receptor; [1]) does the source give for `COc1cccc2c(C(=O)N3CCN4CCC[C@H]4C3)cn(CC3CCCCC3)c12` [Example 17C, (S)-2-{[1-(Cyclohexylmethyl)-7-methoxy-1H-indol-3-yl]carbonyl}-octahydro-2H-Pyrrolo[1,2-a]pyrazine] here?
**A.** Its EC50 is 25.1 nM.

**Q.** What about the ED50 (Mice) of the same molecule?
**A.** Its ED50 is < 5 µmol/kg.

**Q.** For `COc1cccc2c(C(=O)N3CCN4CCCC[C@H]4C3)cn(CC3CCCCC3)c12` [Example 17A, (S)-2-{[1-(Cyclohexylmethyl)-7-methoxy-1H-indol-3-yl]carbonyl}-octahydro-2H-Pyrido[1,2-a]pyrazine], which EC50 (human CB1 receptor; [1]) is on record?
**A.** Its EC50 is 12.6 nM.

**Q.** And the ED50 (Mice)?
**A.** The ED50 was < 5 µmol/kg.

**Q.** For `COc1cccc2c(C(=O)N3CCN(CCO)CC3)cn(CC3CCCCC3)c12` [Example 3C, 1-{[1-(Cyclohexylmethyl)-7-methoxy-1H-indol-3-yl]carbonyl}-4-(2-hydroxyethyl)piperazine], which EC50 (human CB1 receptor; [1]) is on record?
**A.** The EC50 was 251 nM.

**Q.** Which EC50 (human CB1 receptor) does the source give for `CN1CCN(C(=O)c2cn(CC3CCCCC3)c3cc(F)ccc23)CC1` [Example 5T, 1-{[1-(Cyclohexylmethyl)-6-fluoro-1H-indol-3-yl]carbonyl}-4-methylpiperazine] here?
**A.** The EC50 was 251 nM.

**Q.** Which results are given for `CCN1C(C)CN(C(=O)c2cn(CC3CCCCC3)c3c(OC)cccc23)CC1C` (centres unmarked) [Example 14, 1-{[1-(Cyclohexylmethyl)-7-methoxy-1H-indol-3-yl]carbonyl}-3,5-dimethyl-4-ethylpiperazine]?
**A.** EC50 (human CB1 receptor): 10 nM; ED50 (Mice): < 5 µmol/kg

**Q.** `CCN1CCN(C(=O)c2cn(Cc3ccccc3)c3c(OC)cccc23)CC1` [Ref. 3., 1-{[1-Benzyl-7-methoxy-1H-indol-3-yl]carbonyl}-4-ethylpiperazine, reference compound] was tested. Which EC50 (human CB1 receptor) did it give?
**A.** Its EC50 is > 10000 nM.

**Q.** Which EC50 (human CB1 receptor) does the source give for `CCN1CCN(C(=O)c2cn(CC3CCCC3)c3c(OC)cccc23)CC1` [Example 2, 1-{[1-(Cyclopentylmethyl)-7-methoxy-1H-indol-3-yl]carbonyl}-4-ethylpiperazine] here?
**A.** The EC50 was 316 nM.

**Q.** With `CCN1CCN(C(=O)c2cn(CC3CC=CCC3)c3c(OC)cccc23)CC1` (centres unmarked) [Example 5Q, 1-{[1-(Cyclohex-3-enylmethyl)-7-methoxy-1H-indol-3-yl]carbonyl}-4-ethylpiperazine] as the molecule, how does the EC50 (human CB1 receptor) read?
**A.** Its EC50 is 200 nM.

**Q.** With `COc1cccc2c(C(=O)N3CC(C)N(C)C(C)C3)cn(CC3CCCCC3)c12` (centres unmarked) [Example 15F, 1-{[1-(cyclohexylmethyl)-7-methoxy-1H-indol-3-yl]carbonyl}-3,4,5-trimethylpiperazine] as the molecule, how does the EC50 (human CB1 receptor) read?
**A.** Its EC50 is 31.6 nM.

**Q.** What about the ED50 (Mice) of the same molecule?
**A.** The ED50 was < 5 µmol/kg.

**Q.** Which EC50 (human CB1 receptor) does the source give for `COc1cccc2c(C(=O)N3CCN(C)[C@@H](C)C3)cn(CC3CCCCC3)c12` [Example 15O, (S)-1-{[1-(cyclohexylmethyl)-7-methoxy-1H-indol-3-yl]carbonyl}-3,4-dimethylpiperazine] here?
**A.** Its EC50 is 25.1 nM.

**Q.** What about the ED50 (Mice) of the same molecule?
**A.** Its ED50 is < 5 µmol/kg.

**Q.** With `CCN1CCN(C(=O)c2cn(CC3CCCCC3)c3c(F)cccc23)CC1` [Example 5B, 1-{[1-(Cyclohexylmethyl)-7-fluoro-1H-indol-3-yl]carbonyl}-4-ethylpiperazine] as the molecule, how does the EC50 (human CB1 receptor) read?
**A.** The EC50 was 100 nM.

**Q.** Which results are given for `COc1cccc2c(C(=O)N3CCN4CCCC[C@H]4C3)cn(CC3CCCC3)c12` [Example 17D, (S)-2-{[1-(Cyclopentylmethyl)-7-methoxy-1H-indol-3-yl]carbonyl}-octahydro-2H-pyrido[1,2-a]pyrazine]?
**A.** EC50 (human CB1 receptor; [1]): 31.6 nM; ED50 (Mice): < 5 µmol/kg
